ChEMBL document CHEMBL1128468, “Amino acid side chain descriptors for quantitative structure-activity relationship studies of peptide analogues” (J Med Chem, 1995)
Peptide text beside a SMILES is read from it.

molecular target: T1, Substance-K receptor (Rattus norvegicus, UniProt P16610); assay: Antagonism against Tachykinin receptor 2 in rat vas deferens(RVD); format: functional; details: read-out: pA2 (converted)
T1 sequence (P16610 whole entry): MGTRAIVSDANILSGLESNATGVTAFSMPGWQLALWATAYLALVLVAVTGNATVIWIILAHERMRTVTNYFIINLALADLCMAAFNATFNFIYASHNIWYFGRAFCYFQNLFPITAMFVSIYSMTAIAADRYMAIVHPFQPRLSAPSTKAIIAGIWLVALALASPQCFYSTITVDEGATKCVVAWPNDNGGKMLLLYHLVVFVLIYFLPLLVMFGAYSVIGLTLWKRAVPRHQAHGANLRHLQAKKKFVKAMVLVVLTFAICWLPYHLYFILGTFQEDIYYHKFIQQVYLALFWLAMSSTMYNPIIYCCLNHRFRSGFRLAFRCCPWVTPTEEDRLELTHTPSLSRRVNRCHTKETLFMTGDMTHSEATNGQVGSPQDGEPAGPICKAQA

Row | Kb [µM] | Compound
1 | 1.95 | CSCC[C@H](NC(=O)[C@@H](Cc1c[nH]c2ccccc12)NC(=O)[C@@H](Cc1c[nH]c2ccccc12)NC(=O)[C@@H](NC(=O)[C@@H](Cc1c[nH]c2ccccc12)NC(=O)[C@H](CO)NC(=O)[C@@H](N)CC(=O)O)C(C)C)C(=O)O
2 | 18.6 | CC(C)[C@H](NC(=O)[C@@H](Cc1c[nH]c2ccccc12)NC(=O)[C@H](Cc1ccc(O)cc1)NC(=O)[C@@H](N)CC(=O)O)C(=O)NCC(=O)N[C@H](Cc1c[nH]c2ccccc12)C(=O)N[C@@H](CCCN=C(N)N)C(=O)O
3 | 0.0794 | CC(C)C[C@H](NC(=O)[C@@H](Cc1c[nH]c2ccccc12)NC(=O)[C@@H](Cc1c[nH]c2ccccc12)NC(=O)[C@@H](NC(=O)[C@@H](Cc1c[nH]c2ccccc12)NC(=O)[C@H](Cc1ccc(O)cc1)NC(=O)[C@@H](N)CC(=O)O)C(C)C)C(=O)O
4 | 0.155 | CC(C)[C@H](NC(=O)[C@@H](Cc1c[nH]c2ccccc12)NC(=O)[C@H](Cc1ccc(O)cc1)NC(=O)[C@@H](N)CC(=O)O)C(=O)N[C@H](Cc1c[nH]c2ccccc12)C(=O)N[C@H](Cc1c[nH]c2ccccc12)C(=O)N[C@H](Cc1c[nH]c2ccccc12)C(=O)O

molecular target: T2, Substance-K receptor (Mesocricetus auratus, UniProt P51144); assay: Antagonist activity against Tachykinin receptor 2 was measured by Hamster isolated trachea(HT) assay.; format: functional, tissue-based; details: read-out: pA2 (converted)
T2 sequence (P51144 whole entry): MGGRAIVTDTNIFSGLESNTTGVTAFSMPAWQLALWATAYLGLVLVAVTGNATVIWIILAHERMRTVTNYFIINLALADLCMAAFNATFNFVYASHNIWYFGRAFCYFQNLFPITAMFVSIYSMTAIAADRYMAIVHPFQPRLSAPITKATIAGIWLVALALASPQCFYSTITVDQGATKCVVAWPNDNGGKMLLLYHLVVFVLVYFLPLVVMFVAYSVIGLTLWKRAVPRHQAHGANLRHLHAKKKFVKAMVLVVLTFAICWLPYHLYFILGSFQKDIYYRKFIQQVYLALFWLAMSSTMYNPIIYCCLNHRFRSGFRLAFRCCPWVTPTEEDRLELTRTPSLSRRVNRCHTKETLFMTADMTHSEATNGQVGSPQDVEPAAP

Row | Kb [µM] | Compound
5 | 6.46 | CSCC[C@H](NC(=O)[C@@H](Cc1c[nH]c2ccccc12)NC(=O)[C@@H](Cc1c[nH]c2ccccc12)NC(=O)[C@@H](NC(=O)[C@@H](Cc1c[nH]c2ccccc12)NC(=O)[C@H](CO)NC(=O)[C@@H](N)CC(=O)O)C(C)C)C(=O)O
6 | 6.31 | CC(C)[C@H](NC(=O)[C@@H](Cc1c[nH]c2ccccc12)NC(=O)[C@H](Cc1ccc(O)cc1)NC(=O)[C@@H](N)CC(=O)O)C(=O)NCC(=O)N[C@H](Cc1c[nH]c2ccccc12)C(=O)N[C@@H](CCCN=C(N)N)C(=O)O
7 | 1.2 | CC(C)C[C@H](NC(=O)[C@@H](Cc1c[nH]c2ccccc12)NC(=O)[C@@H](Cc1c[nH]c2ccccc12)NC(=O)[C@@H](NC(=O)[C@@H](Cc1c[nH]c2ccccc12)NC(=O)[C@H](Cc1ccc(O)cc1)NC(=O)[C@@H](N)CC(=O)O)C(C)C)C(=O)O
8 | 1.38 | CC(C)[C@H](NC(=O)[C@@H](Cc1c[nH]c2ccccc12)NC(=O)[C@H](Cc1ccc(O)cc1)NC(=O)[C@@H](N)CC(=O)O)C(=O)N[C@H](Cc1c[nH]c2ccccc12)C(=O)N[C@H](Cc1c[nH]c2ccccc12)C(=O)N[C@H](Cc1c[nH]c2ccccc12)C(=O)O
9 | 1.74 | CC(C)[C@H](NC(=O)[C@@H](Cc1c[nH]c2ccccc12)NC(=O)[C@H](Cc1ccc(O)cc1)NC(=O)[C@@H](N)CCC(N)=O)C(=O)N[C@H](Cc1c[nH]c2ccccc12)C(=O)N[C@H](Cc1c[nH]c2ccccc12)C(=O)N[C@@H](Cc1ccccc1)C(=O)O
10 | 4.17 | CC(C)[C@H](NC(=O)[C@@H](Cc1c[nH]c2ccccc12)NC(=O)[C@H](CCCCN)NC(=O)[C@@H](N)CC(=O)O)C(=O)N[C@H](Cc1c[nH]c2ccccc12)C(=O)N[C@H](Cc1c[nH]c2ccccc12)C(=O)N[C@@H](CCCCN)C(=O)O

molecular target: T3, Substance-K receptor (Oryctolagus cuniculus, UniProt P79218); assay: Antagonist activity against Tachykinin receptor 2 was measured by Rabbit pulmonary artery(RPA) assay.; format: functional; details: read-out: pA2 (converted)
T3 sequence (P79218 whole entry): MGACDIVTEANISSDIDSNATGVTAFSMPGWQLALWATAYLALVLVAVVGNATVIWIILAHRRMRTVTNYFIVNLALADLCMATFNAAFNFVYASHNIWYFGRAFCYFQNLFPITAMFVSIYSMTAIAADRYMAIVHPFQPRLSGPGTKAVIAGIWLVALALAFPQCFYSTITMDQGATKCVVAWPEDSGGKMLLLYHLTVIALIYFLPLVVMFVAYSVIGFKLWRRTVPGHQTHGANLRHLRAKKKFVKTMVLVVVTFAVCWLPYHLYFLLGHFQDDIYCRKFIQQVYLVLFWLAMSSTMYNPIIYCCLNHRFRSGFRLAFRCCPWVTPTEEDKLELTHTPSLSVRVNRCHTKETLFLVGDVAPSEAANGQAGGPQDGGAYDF

Row | Kb [µM] | Compound
11 | 4.79 | CSCC[C@H](NC(=O)[C@@H](Cc1c[nH]c2ccccc12)NC(=O)[C@@H](Cc1c[nH]c2ccccc12)NC(=O)[C@@H](NC(=O)[C@@H](Cc1c[nH]c2ccccc12)NC(=O)[C@H](CO)NC(=O)[C@@H](N)CC(=O)O)C(C)C)C(=O)O
12 | 19.5 | CC(C)[C@H](NC(=O)[C@@H](Cc1c[nH]c2ccccc12)NC(=O)[C@H](Cc1ccc(O)cc1)NC(=O)[C@@H](N)CC(=O)O)C(=O)NCC(=O)N[C@H](Cc1c[nH]c2ccccc12)C(=O)N[C@@H](CCCN=C(N)N)C(=O)O
13 | 1.62 | CC(C)C[C@H](NC(=O)[C@@H](Cc1c[nH]c2ccccc12)NC(=O)[C@@H](Cc1c[nH]c2ccccc12)NC(=O)[C@@H](NC(=O)[C@@H](Cc1c[nH]c2ccccc12)NC(=O)[C@H](Cc1ccc(O)cc1)NC(=O)[C@@H](N)CC(=O)O)C(C)C)C(=O)O
14 | 1.62 | CC(C)[C@H](NC(=O)[C@@H](Cc1c[nH]c2ccccc12)NC(=O)[C@H](Cc1ccc(O)cc1)NC(=O)[C@@H](N)CC(=O)O)C(=O)N[C@H](Cc1c[nH]c2ccccc12)C(=O)N[C@H](Cc1c[nH]c2ccccc12)C(=O)N[C@H](Cc1c[nH]c2ccccc12)C(=O)O
15 | 1.66 | CC(C)[C@H](NC(=O)[C@@H](Cc1c[nH]c2ccccc12)NC(=O)[C@H](Cc1ccc(O)cc1)NC(=O)[C@@H](N)CCC(N)=O)C(=O)N[C@H](Cc1c[nH]c2ccccc12)C(=O)N[C@H](Cc1c[nH]c2ccccc12)C(=O)N[C@@H](Cc1ccccc1)C(=O)O
16 | 100 | CC(C)[C@H](NC(=O)[C@@H](Cc1c[nH]c2ccccc12)NC(=O)[C@H](CCCCN)NC(=O)[C@@H](N)CC(=O)O)C(=O)N[C@H](Cc1c[nH]c2ccccc12)C(=O)N[C@H](Cc1c[nH]c2ccccc12)C(=O)N[C@@H](CCCCN)C(=O)O

tested on: not listed separately; assay: Biological activity for bradykinin potentiating pentapeptide as the logarithm of the relative activity index compared to the reference molecule (Val-Glu-Ser-Ser-Lys).; format: functional; details: not given

Row | Compound | Log RAI
17 | H-LEAAK-OH | 0.4
18 | H-VESAK-OH | 0.28
19 | H-VEHAK-OH | 1.53
20 | C[C@H](N)C(=O)N[C@@H](C)C(=O)N[C@@H](C)C(=O)N[C@@H](C)C(=O)N[C@@H](C)C(=O)O | -0.1
21 | H-VAAAK-OH | -0.1
22 | H-EKWAP-OH | 1.3
23 | H-VAWAK-OH | 1.45
24 | H-VKWAP-OH | 2.35
25 | H-VEASK-OH | 0.2
26 | C[C@H](N)C(=O)N[C@@H](C)C(=O)N[C@@H](Cc1ccc(O)cc1)C(=O)N[C@@H](C)C(=O)N[C@@H](C)C(=O)O | 0.46
27 | H-VESSK-OH | 0
28 | H-VEFAK-OH | 1.57
29 | H-VELAK-OH | 0.59
30 | H-VAAWK-OH | 0.23
31 | H-RYLPT-OH | 0.4
32 | H-FEAAK-OH | 0.3

Row | Compound | Log RAI
33 | H-PGFSP-OH | 0.9
34 | H-VEAAP-OH | 0.18
35 | H-VAWAA-OH | 1.43
36 | NCC(=O)NCC(=O)NCC(=O)NCC(=O)NCC(=O)O | 0
37 | H-VEGGK-OH | -1
38 | H-VWAAK-OH | 0.04
39 | H-GEAAK-OH | -0.52
40 | H-VKAAK-OH | 0.11
41 | H-VEAAK-OH | 0.51
42 | H-FSPFR-OH | 0.64
43 | H-VKWAA-OH | 1.71
44 | H-VEWAK-OH | 2.73
45 | H-RKWAP-OH | 1.98
46 | H-AAWAA-OH | 0.75
47 | H-VEWVK-OH | 1.71

molecular target: Angiotensin-converting enzyme (Homo sapiens, UniProt P12821); assay: Biological activity was measured against Angiotensin I converting enzyme; details: read-out: Log 1/IC50 (converted)
Sequence (P12821 whole entry): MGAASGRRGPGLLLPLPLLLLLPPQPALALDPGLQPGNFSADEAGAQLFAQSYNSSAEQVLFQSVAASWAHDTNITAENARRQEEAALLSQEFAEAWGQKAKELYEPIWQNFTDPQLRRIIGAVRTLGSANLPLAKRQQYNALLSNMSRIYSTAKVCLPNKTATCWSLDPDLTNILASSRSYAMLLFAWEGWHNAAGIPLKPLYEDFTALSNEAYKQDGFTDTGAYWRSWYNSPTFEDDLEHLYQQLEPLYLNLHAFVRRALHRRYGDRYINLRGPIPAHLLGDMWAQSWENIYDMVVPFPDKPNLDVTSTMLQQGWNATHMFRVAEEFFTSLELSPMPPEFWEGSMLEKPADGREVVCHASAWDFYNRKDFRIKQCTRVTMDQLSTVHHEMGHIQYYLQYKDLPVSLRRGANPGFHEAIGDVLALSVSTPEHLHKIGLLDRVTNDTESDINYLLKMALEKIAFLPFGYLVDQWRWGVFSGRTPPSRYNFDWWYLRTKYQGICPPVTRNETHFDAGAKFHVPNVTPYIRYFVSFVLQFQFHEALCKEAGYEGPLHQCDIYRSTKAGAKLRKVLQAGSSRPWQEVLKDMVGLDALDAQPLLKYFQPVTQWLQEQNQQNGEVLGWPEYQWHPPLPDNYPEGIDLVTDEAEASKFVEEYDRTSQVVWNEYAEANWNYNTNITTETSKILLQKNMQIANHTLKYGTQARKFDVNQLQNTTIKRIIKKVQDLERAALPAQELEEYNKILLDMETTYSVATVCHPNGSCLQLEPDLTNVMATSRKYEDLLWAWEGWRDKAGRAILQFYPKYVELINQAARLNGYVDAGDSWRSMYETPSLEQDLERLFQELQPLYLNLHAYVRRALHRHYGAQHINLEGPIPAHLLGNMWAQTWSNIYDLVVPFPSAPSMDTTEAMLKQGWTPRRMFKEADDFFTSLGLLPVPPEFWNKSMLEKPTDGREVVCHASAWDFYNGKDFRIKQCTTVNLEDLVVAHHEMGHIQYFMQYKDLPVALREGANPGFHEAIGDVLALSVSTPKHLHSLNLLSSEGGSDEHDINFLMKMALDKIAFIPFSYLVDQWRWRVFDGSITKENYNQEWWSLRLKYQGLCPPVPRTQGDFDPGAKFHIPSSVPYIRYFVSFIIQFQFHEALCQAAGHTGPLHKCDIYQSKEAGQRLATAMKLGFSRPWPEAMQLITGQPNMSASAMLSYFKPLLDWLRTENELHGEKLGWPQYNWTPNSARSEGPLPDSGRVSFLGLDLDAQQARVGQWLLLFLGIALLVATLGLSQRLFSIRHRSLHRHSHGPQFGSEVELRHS

Row | IC50 [µM] | Compound
48 | 10000 | N[C@@H](CCC(=O)O)C(=O)NCC(=O)O (H-Glu-Gly-OH)
49 | 912 | N=C(N)NCCC[C@H](NC(=O)[C@@H](N)Cc1ccccc1)C(=O)O (H-Phe-Arg-OH)
50 | 3090 | NCC(=O)N[C@@H](Cc1c[nH]cn1)C(=O)O (H-Gly-His-OH)
51 | 14100 | N[C@@H](CC(=O)O)C(=O)NCC(=O)O (H-Asp-Gly-OH)
